# Measurements published in patent publication US20230107128A1, “SCREENING SYSTEM FOR HUMAN-TRANSFORMED CARTILAGE CELL LINE-BASED CARTILAGE DISEASE TREATMENT AGENTS” (LUGEN SCI CO., LTD., priority 2018, published 2023).
# “Also recorded” adds a separate entry of the source. Read-outs that look alike come from different tables or passages of the source.
# Legend:
# [1] = system: human type II collagen fusion promoter (Col2a1 promoter); experiment: Luciferase reporter screening system in C28/I2-EC2P-fLuc-CN5 cell line; type: cell-based; settings: for cartilage regeneration activity (luminescence) compared with Kartogenin; criterion equal to or higher than Kartogenin: 50 μM, 48 hours, screen of 37 natural products
# Description: All the experimental groups for the verification of the screening system according to the present invention and the search for novel cartilage regeneration materials were prepared by dissolving the same in dimethyl sulfoxide (DMSO) at the same concentration of 20 mM. The cells to be analyzed were seeded and fixed into a white-bottom 96-well plate, which was a plate exclusively used for luminescence analysis, at an initial concentration of 10,000 cells per well 24 hours before the experiment. On the following day, the cells were subjected to starvation in serum-free culture fluid (DMEM/F12 media) for seven hours. After that, while the culture fluid was replaced with the serum culture fluid [DMEM/F12, 10% FBS, 1% penicillin, and streptomycin], the experimental groups on natural products at each 20 mM were diluted 1/400, treated repeatedly three times, and further cultured for 48 hours.
# After further culturing the cells to be analyzed, which were treated with natural materials in above 5.1, for 48 hours, all the culture fluid was removed and replaced with a new culture fluid containing D-luciferin at a final concentration of 150 μg/ml and reacted at room temperature for five minutes. Then, the degree of light emission from each cell was measured by using the luminescence analysis function of the TECAN SPARK multi-reader.
# By using the screening system for cartilage disease treatment agents according to the present invention, the pattern of changes in cartilage regeneration activity according to the treatment concentration of 2-AQCA was compared with the activity of Kartogenin, a positive control group of natural material.
# Sox9 = experiment: Rq-PCR of Sox9 expression in C28/I2 micromass culture; type: cell-based, human; settings: 10 μM, 14 days micromass culture
# Description: (§1) C28/I2 cell lines were subjected to micromass culture in order to compare and examine the change in the expression of Col2a1 and Sox9, which are the representative cartilage differentiation markers, and Col10, which is a cartilage hypertrophy marker, by treatment with the complex functional natural material 2-AQCA during long-term culture for inducing cartilage differentiation. For this purpose, the C28/I2 cells cultured for three days were collected and a cell fluid was prepared at a concentration of 2×10^7 cells/ml, and then 10 μl of cells were taken and injected into the center of a 24-well plate, and fixed in an incubator of 37° C., 5% CO2 for two to three hours until all the cells were attached to the bottom. When all the cells were fixed, 500 μl of serum culture fluid (DMEM/F12, 10% FBS, 1% penicillin, and streptomycin) was added and further cultured for seven hours or more. […]
# (§2) After completing the micromass culture for 14 days, RNA was isolated from each cell pellet by using TRIzol™, and cDNA was synthesized from the isolated RNA. The synthesized cDNA was compared and analyzed for expression of the corresponding gene through a real-time quantitative polymerase chain reaction (Rq-PCR) by using a specific primer for each gene. […]
# Col10a1 = experiment: Rq-PCR of Col10a1 expression in C28/I2 micromass culture; type: cell-based, human; settings: 10 μM, 14 days micromass culture
# Description: as §1, §2
# C28/I2 cell line = type: cell-based, human
# Description: To confirm the effect of 2-AQCA on inhibiting a cell growth rate and the presence of toxicity, the cells to be analyzed (C28/I2 cell line and chondrocytes isolated from osteoarthritis patients) were seeded and fixed at an initial concentration of 10,000 cells per well in a 96-well plate 24 hours before the experiment, and the cells were subjected to starvation in serum-free culture fluid for seven hours on the following next day. After that, while the culture fluid was replaced with a serum culture fluid containing 10% FBS, the experimental groups were treated repeatedly three times with Kartogenin and 2-AQCA at each concentration and further cultured for 48 hours. The cells were treated with the test materials at each concentration of 0, 3.125, 6.25, 12.5, and 25 μM, which had been used to verify the effect of treatment at each of the concentrations. Similarly, in order to equalize the experimental conditions, the treatment was performed so that the final concentration of DMSO was 0.25% in all the experimental groups. […] Then, the absorbance of each cell was measured at 450 nm by using a TECAN SPARK multi-reader.
# Col2a1 = experiment: Rq-PCR of Col2a1 expression in C28/I2 micromass culture; type: cell-based, human; settings: 10 μM, 14 days micromass culture
# Description: as §1, §2
# [2] = C28/I2-EC2P-fLuc-CN5, drug 0 to 50 μM
smiles,measurement,setting,value
Cn1ncc2c1-c1c(Oc3ccc(OCc4ccc5ccccc5n4)cc3)sc(C(N)=O)c1CC2 [TD-198946],cartilage regeneration activity (luminescence) compared with Kartogenin; criterion equal to or higher than Kartogenin,[1],higher than that of Kartogenin
same,luciferase activity compared with Kartogenin,[1]; [2],higher than that of Kartogenin
same,luciferase activity with increasing concentration,[1]; [2],increased as the concentration of both drugs is increased; also recorded: continuously increases the luciferase activity
O=C(O)c1ccccc1C(=O)Nc1ccc(-c2ccccc2)cc1 [Kartogenin],luciferase activity at 50 μM,"[1]; C28/I2-EC2P-fLuc-CN5, 50 μM",decreases the luciferase activity
same,luciferase activity with increasing concentration,[1]; [2],increased as the concentration of both drugs is increased
same,cytotoxicity indirectly suggested by the luciferase activity,[1]; high concentration (50 μM),has cytotoxicity at a high concentration
same,Sox9 expression relative to the negative control group,Sox9,insignificant increase
same,decrease in Col10a1 expression compared to the negative control group,Col10a1,about 40%
"O=C(O)c1ccc2c(c1)C(=O)c1ccccc1C2=O [2-AQCA, 2-anthraquinonecarboxylic acid]",cartilage regeneration activity compared with Kartogenin,[1]; 25 μM,slightly higher than that of Kartogenin
same,cartilage regeneration activity (luminescence) compared with Kartogenin; criterion equal to or higher than Kartogenin,[1],complies with the above conditions
same,cartilage regeneration activity compared with Kartogenin,[1]; concentration of less than 25 μM,somewhat lower than that of Kartogenin
same,cell growth rate higher than that of Kartogenin,"C28/I2 cell line; C28/I2, 6.25 μM",about 11%
same,cell growth rate higher than that of Kartogenin,"C28/I2 cell line; C28/I2, 12.5 μM",about 8.2%
same,Col2a1 expression rate relative to the Kartogenin group,Col2a1,about 4.2 times
same,Col2a1 expression rate relative to the negative control group,Col2a1,7.6 times
same,Sox9 expression relative to the negative control group,Sox9,at least 2.1 times
same,decrease in Col10a1 expression compared to the negative control group,Col10a1,about 40%
